Experimental data taken from patent publication US20240293367A1, “METHODS OF TREATING DISORDERS WITH A […]” (Cybin IRL Limited, priority 2023, published 2024).
Values joined by “and” are separate entries in the source; they are usually repeats but may differ in a detail not shown here. Equal entries are not always repeated.

Tested on: participants with MDD
Test: MADRS total score, response, remission and relapse in MDD participants (Phase I/IIa study)
Assay type: in vivo, human
Conditions: for effect size, Cohen's d, versus placebo (MADRS): Day 21
Source text: Cohorts 1, 4, 5, and 6 of the study was comprised of participants with MDD. Cohorts 2, 3, and the relative BA cohort of the study were comprised of normal healthy volunteers (NHV). […] MDD participants had been on a stable dose of antidepressant medication for at least one month prior to screening with an inadequate response to that antidepressant medication as judged by the Investigator, and continued to receive their prescribed antidepressant throughout the course of the study.
Cohorts 4 and 5. For Cohorts 4 and 5, 12 participants each (24 participants total) were randomized in a 3:1 ratio to receive 12 mg of psilocin-d10 or matched placebo in a single dosing session on Day 1. Following a 21-day interval, all participants received a dose of 12 mg psilocin-d10 on Day 22 (second dose for participants originally randomized to psilocin-d10, first dose for participants randomized to placebo), and were followed to Day 42.
Cohort 6. For Cohort 6, 12 participants were randomized in a 3:1 ratio to receive 16 mg of psilocin-d10 or matched placebo in a single dosing session on Day 1. Following a 21-day interval, all participants received a dose of 16 mg psilocin-d10 on Day 22 (second dose for participants originally randomized to psilocin-d10, first dose for participants randomized to placebo), and were followed to Day 42. Given the availability of data and considering that the secondary endpoint was a change in baseline to Day 21 in MADRS, efficacy data presented herein considers the data cut off of Day 21 postdose. One participant had to be withdrawn from the study due to pregnancy.
The primary efficacy endpoint defined in the statistical analysis plan (SAP) is the change from baseline to Day 21 of the total Montgomery-Åsberg Depression Rating Scale (MADRS) score compared to placebo, therefore efficacy data presented herein considers the data cut off of Day 21 postdose. Mean total score and change from baseline on Montgomery-Åsberg Depression Rating Scale (MADRS) on days 1, 10, 17, 22, 31, 38, and 42 are presented as secondary efficacy endpoints.
The secondary objective of the study was to evaluate the efficacy of psilocin-d10 in treating symptoms of MDD as measured by the change from baseline to Day 21 of the MADRS total score in the Intent-to-Treat population, with data analyzed according to the treatment group each participant was randomized to receive. Data from participants in Cohorts 4, 5, and 6 randomized to placebo was pooled for analysis purposes (N=9). Data from participants in Cohorts 4, 5, and 6 randomized to 12 mg or 16 mg psilocin-d10 (N=27) was also pooled for analysis.
Data from the study was also analyzed according to dosage level of psilocin-d10. Data from participants in Cohorts 4, 5, and 6 randomized to placebo was pooled for analysis purposes (N=9). Data from participants in Cohorts 4 and 5 (treated with 12 mg psilocin-d10) was also pooled for analysis (N=18).
The rates of remission, response, and relapse were also evaluated within the study. […] Additionally, 20.8% (5 out of 24) of participants in the psilocin-do group (12 mg and 16 mg combined) were in remission (remitters) (defined as a MADRS score of ≤10) compared to 0% for placebo at Day 21. The same 5 participants who were in remission were also classified as responders. None of the participants relapsed at Day 21 compared to baseline.
The MADRS is a 10-item scale with ratings based on a clinical interview which moves from broadly phrased questions about symptoms to more detailed ones allowing a precise rating of severity. A rating scale from 0 to 6 is employed and the rater must decide whether the rating lies on defined scale steps (0, 2, 4, 6) or between them (1, 3, 5). The MADRS can be used for any time interval between ratings, be it weekly or otherwise, and the time interval should be recorded. […]

[1] = Day 42, Cohort 4, two 12 mg doses
[2] = Day 42, Cohort 5, two 12 mg doses
[3] = Day 42, Cohort 6, two 16 mg doses
[4] = Day 42, Cohorts 4 and 5, two 12 mg doses
[5] = Day 42, Placebo/active group, one dose Day 22
[6] = Day 42, Placebo/active group: one psilocin-d10 dose Day 22
[7] = Day 42, two 12 mg doses (11 out of 14)
[8] = Day 42, two 12 mg doses, Cohorts 4 and 5
[9] = Day 42, two 16 mg doses, Cohort 6
[10] = Day 42, two doses (Day 1, Day 22), 12 and 16 mg pooled
[11] = Day 42, two doses, 12 and 16 mg pooled
[12] = Day 42, two doses, pooled 12 mg and 16 mg

In the case of `[2H]C([2H])([2H])N(C([2H])([2H])[2H])C([2H])([2H])C([2H])([2H])c1c[nH]c2cccc(O)c12` [psilocin-d10, 3-(2-(bis(methyl-d3)amino)ethyl-1,1,2,2-d4)-1H-indol-4-ol], the “Relapse - Yes” value [1] is reported as 0 (0.0) n (%), the “Remission (MADRS ≤10) - Yes” value [1] is reported as 5 (71.4) n (%) and the “Remission - No” value [1] is reported as 2 (28.6) n (%). For the same molecule, the “Response (≥50% reduction from baseline MADRS) - Yes” value [1] was 5 (71.4) n (%), the “Response - No” value [1] was 2 (28.6) n (%) and the “Relapse - No” value [2] was 8 (100.0) n (%). The “Relapse - Yes” value [2] was 0 (0.0) n (%), the “Remission (MADRS ≤10) - Yes” value [2] was 6 (85.7) n (%) and the “Remission - No” value [2] was 1 (14.3) n (%). For the same molecule, the “Response (≥50% reduction from baseline MADRS) - Yes” value [2] was 6 (85.7) n (%), the “Response - No” value [2] was 1 (14.3) n (%) and the “Relapse - No” value [3] was 8 (100.0) n (%). For the same molecule, the “Relapse - Yes” value [3] was 0 (0.0) n (%), the “Remission (MADRS ≤10) - Yes” value [3] was 4 (50.0) n (%) and the “Remission - No” value [3] was 4 (50.0) n (%). For the same molecule, the “Response (≥50% reduction from baseline MADRS) - Yes” value [3] was 6 (75.0) n (%), the “Response - No” value [3] was 2 (25.0) n (%) and the “Relapse - No” value [4] was 15 (100.0) n (%). For the same molecule, the “Relapse - Yes” value [4] was 0 (0.0) n (%), the “Remission (MADRS ≤10) - Yes” value [4] was 11 (78.6) n (%) and the “Remission - No” value [4] was 3 (21.4) n (%). The “Response (≥50% reduction from baseline MADRS) - Yes” value [4] was 11 (78.6) n (%), the “Response - No” value [4] was 3 (21.4) n (%) and the “Relapse - No” value [5] was 9 (100.0) n (%). For the same molecule, the “Relapse - Yes” value [5] was 0 (0.0) n (%), the “Remission - No” value [5] was 5 (55.6) n (%) and the “Response (≥50% reduction from baseline MADRS) - Yes” value [5] was 4 (44.4) n (%). For the same molecule, the “Response - No” value [5] was 5 (55.6) n (%), the “Remission (MADRS ≤10) - Yes” value (Day 42, Placebo/active group, one dose Day 22 (pooled 12 mg and 16 mg)) was 4 (44.4) n (%) and the “MADRS total score, Change from Baseline, Median” value [6] was −14.0. For the same molecule, the “MADRS total score, Observed, Median” value [6] was 16.0, the “MADRS total score, Change from Baseline, Mean” value (Day 42, Placebo/active group: one psilocin-d10 dose Day 22 (12 and 16 mg pooled)) was −16.4 and the “MADRS total score, Observed, Mean” value (Day 42, Placebo/active group: placebo Day 1, one psilocin-d10 dose Day 22 (12 and 16 mg pooled)) was 15.1. For the same molecule, the participants in remission (Day 42, after second dose, 12 mg and 16 mg combined (15 out of 22)) was 68.2%, the participants with response (Day 42, after second dose, 12 mg and 16 mg combined (17 out of 22)) was 77.3% and 77% and the participants with response (Day 42, placebo/psilocin-d10 group, first dose Day 22 (4 out of 9)) was 44.4%. The participants in remission [7] was 78.6%, the participants with response [7] was 78.6% and the “MADRS total score, Change from Baseline, Mean” value [8] was −22.8. The “MADRS total score, Change from Baseline, Median” value [8] was −25.5, the “MADRS total score, Observed, Mean” value [8] was 9.4 and the “MADRS total score, Observed, Median” value [8] was 3.5. For the same molecule, the participants in remission (Day 42, two 16 mg doses (4 out of 8)) was 50.0%, the participants with response (Day 42, two 16 mg doses (6 out of 8)) was 75% and the “MADRS total score, Change from Baseline, Mean” value [9] was −17.6. For the same molecule, the “MADRS total score, Change from Baseline, Median” value [9] was −20.5, the “MADRS total score, Observed, Mean” value [9] was 13.0 and the “MADRS total score, Observed, Median” value [9] was 11.5. The “MADRS total score, Change from Baseline, Mean” value [10] was −20.9, the “MADRS total score, Observed, Mean” value [10] was 10.7 and the “MADRS total score, Change from Baseline, Median” value [11] was −24.5. For the same molecule, the “MADRS total score, Observed, Median” value [11] was 7.0, the “Relapse - No” value [12] was 22 (100.0) n (%) and the “Relapse - Yes” value [12] was 0 (0.0) n (%). For the same molecule, the “Remission (MADRS ≤10) - Yes” value [12] was 15 (68.2) n (%), the “Remission - No” value [12] was 7 (31.8) n (%) and the “Response (≥50% reduction from baseline MADRS) - Yes” value [12] was 17 (77.3) n (%). The “Response - No” value [12] was 5 (22.7) n (%), the “MADRS, Difference in LS Means, 12 mg (two doses) compared to Placebo/active (one dose)” value (Day 42, 95% CI (−14.2, 7.5), P 0.5299) was −3.34 and the “MADRS, Difference in LS Means, 12 mg compared to Cohort 6 (16 mg)” value (Day 42, 95% CI (−15.3, 22.5), P 0.6999) was 3.58. For the same molecule, the “MADRS, difference in LS means, 16 mg (two doses) versus Placebo/active (one dose)” value (Day 42, 95% CI −22.8, 7.2, p=0.2931) was −7.79, the “participants meeting criteria for response” value (Day 126, two 12 mg doses (Day 1, Day 22), N=15) was 73% and the “participants meeting criteria for remission” value (Day 126, two 12 mg doses, N=15) was 60%. For the same molecule, the “participants meeting criteria for response” value (Day 126, two 16 mg doses (Day 1, Day 22), N=8) was 75%, the “participants meeting criteria for remission” value (Day 126, two 16 mg doses, N=8) was 75% and the “effect size, Cohen's d, versus placebo (MADRS)” value (single 12 mg dose, 95% CI: 0.92, 3.37) was 2.15. The “effect size, Cohen's d, versus placebo (MADRS)” value (single 16 mg dose) was 2.54.
